Data from the supplement of paper PMC13380429.

Experiments:
[1] = tested on: Vero E6; test: relative viability EC50 (midpoint between 100% and the lowest measured viability); higher = less toxic; settings: 72 h
[2] = tested on: HepG2; test: as above; settings: 72 h
[3] = tested on: Calu-3; test: as above; settings: 72 h
[4] = tested on: Caco-2; test: as above; settings: 72 h
[5] = tested on: U2OS; test: as above; settings: 72 h
[6] = tested on: Vero E6; test: drug sensitivity score (DSS) for viability; higher = more toxic; extreme values may be limits of the assay; settings: 72 h
[7] = tested on: HepG2; test: as above; settings: 72 h
[8] = tested on: Calu-3; test: as above; settings: 72 h
[9] = tested on: Caco-2; test: as above; settings: 72 h
[10] = tested on: U2OS; test: as above; settings: 72 h
[11] = tested on: A549-ACE2 infected with SARS-CoV-2; test: morphology score (similarity to uninfected cells); higher = more like uninfected cells; settings: 24 h
[12] = tested on: A549-ACE2 infected with SARS-CoV-2; test: SARS-CoV-2 infection rate relative to DMSO; higher = more infection; settings: 24 h
[13] = tested on: Vero E6; test: cell viability relative to DMSO; higher = less toxic; settings: 72 h
[14] = tested on: HepG2; test: as above; settings: 72 h
[15] = tested on: Calu-3; test: as above; settings: 72 h
[16] = tested on: Caco-2; test: as above; settings: 72 h
[17] = tested on: U2OS; test: as above; settings: 72 h
[18] = tested on: A549-ACE2 infected with SARS-CoV-2; test: cell count relative to DMSO; higher = less toxic; settings: 24 h
[19] = tested on: A549-ACE2; test: drug-induced phospholipidosis relative to tamoxifen; higher = more phospholipidosis
[20] = tested on: A549-ACE2; test: phospholipidosis EC50; higher = less potent phospholipidosis inducer

Oc1cc(CNC(=S)/C=C/c2cc(O)c(O)c(Br)c2)cc(O)c1O [NT157]
Settings	drug sensitivity score	relative viability EC50 [µM]
[1]	–	2.08
[2]	–	1.35
[3]	–	3.38
[4]	–	2.1
[5]	–	1.07
[6]	5.2	–
[7]	7.4	–
[8]	3.9	–
[9]	5.8	–
[10]	8.8	–

Settings	SARS-CoV-2 infection rate, [12] [%]	cell count, [18] [%]	cell viability, [13] [%]	cell viability, [14] [%]	cell viability, [15] [%]	cell viability, [16] [%]	cell viability, [17] [%]	morphology score, [11]
1 nM	–	–	89.7	101	104	78.4	102	–
10 nM	–	–	102	101	101	102	98.2	–
0.1 µM	104	104	–	–	–	–	–	0.06
100 nM	–	–	92.8	95.6	109	99.4	99.8	–
0.3 µM	103	107	–	–	–	–	–	0.02
1 µM	105	106	–	–	–	–	–	-0.23
1000 nM	–	–	91	74.1	103	90.2	64.9	–
3 µM	101	93	–	–	–	–	–	-0.08
10000 nM	–	–	32.9	25.4	25.6	25.7	23.5	–

drug-induced phospholipidosis [%], [19]
Settings	0.3 µM	0.833333 µM	3.33333 µM	6.66667 µM	10 µM
24 h	2.74	-0.68	-0.71	22	29.2
48 h	2.03	-0.74	-5.67	–	–
72 h	3.76	-0.841	–	–	–

COc1cc(-c2cc(-c3cccc(O)c3)cnc2N)cc(OC)c1OC
Settings	drug sensitivity score	relative viability EC50 [µM]
[1]	–	> 10
[3]	–	> 10
[4]	–	> 10
[6]	0	–
[7]	1.2	–
[8]	0	–
[9]	0.6	–
[10]	3.1	–

Settings	SARS-CoV-2 infection rate, [12] [%]	cell count, [18] [%]	cell viability, [13] [%]	cell viability, [14] [%]	cell viability, [15] [%]	cell viability, [16] [%]	cell viability, [17] [%]	morphology score, [11]
1 nM	–	–	99.7	94.1	87.7	101	95.8	–
10 nM	–	–	103	94.6	93.6	103	93.7	–
100 nM	–	–	97.4	93.8	92.3	105	101	–
0.3 µM	101	100	–	–	–	–	–	0.01
1000 nM	–	–	106	98.4	87.6	101	91	–
3 µM	103	99	–	–	–	–	–	0.39
10 µM	93	105	–	–	–	–	–	0.31
10000 nM	–	–	99	74.8	84.6	79.4	64.5	–
30 µM	91	84	–	–	–	–	–	0.16

drug-induced phospholipidosis [%], [19]
Settings	0.3 µM	0.833333 µM	3.33333 µM	6.66667 µM	10 µM	30 µM
24 h	4	3.08	6.21	12	15.9	47.9
48 h	3.78	1.52	1.5	4.27	9.43	62.2
72 h	4.57	0.15	0.0757	1.61	5.86	65.7

CC(C)c1ccc(C(=O)c2cccs2)c(SCCCCCCCCN(C)C)n1
Settings	drug sensitivity score	relative viability EC50 [µM]
[1]	–	> 10
[2]	–	3.39
[3]	–	3.55
[4]	–	2.32
[6]	1.4	–
[7]	3.6	–
[8]	3.6	–
[9]	3.7	–
[10]	1.3	–

Settings	SARS-CoV-2 infection rate [%]	cell count [%]	cell viability [%]	morphology score	phospholipidosis EC50 [µM]
[11], 0.1 µM	–	–	–	-0.04	–
[11], 0.3 µM	–	–	–	0.17	–
[11], 1 µM	–	–	–	0.57	–
[11], 3 µM	–	–	–	0.88	–
[12], 0.1 µM	99	–	–	–	–
[12], 0.3 µM	95	–	–	–	–
[12], 1 µM	74	–	–	–	–
[12], 3 µM	23	–	–	–	–
[13], 1 nM	–	–	100	–	–
[13], 10 nM	–	–	99.8	–	–
[13], 100 nM	–	–	101	–	–
[13], 1000 nM	–	–	94.6	–	–
[13], 10000 nM	–	–	78.4	–	–
[14], 1 nM	–	–	97.9	–	–
[14], 10 nM	–	–	94.6	–	–
[14], 100 nM	–	–	109	–	–
[14], 1000 nM	–	–	103	–	–
[14], 10000 nM	–	–	29.4	–	–
[15], 1 nM	–	–	101	–	–
[15], 10 nM	–	–	120	–	–
[15], 100 nM	–	–	97.4	–	–
[15], 1000 nM	–	–	106	–	–
[15], 10000 nM	–	–	27.9	–	–
[16], 1 nM	–	–	106	–	–
[16], 10 nM	–	–	91.6	–	–
[16], 100 nM	–	–	97.6	–	–
[16], 1000 nM	–	–	94.6	–	–
[16], 10000 nM	–	–	47.3	–	–
[17], 1 nM	–	–	99.4	–	–
[17], 10 nM	–	–	95.9	–	–
[17], 100 nM	–	–	101	–	–
[17], 1000 nM	–	–	98.9	–	–
[17], 10000 nM	–	–	71.6	–	–
[18], 0.1 µM	–	98	–	–	–
[18], 0.3 µM	–	101	–	–	–
[18], 1 µM	–	111	–	–	–
[18], 3 µM	–	123	–	–	–
[20], 24 h	–	–	–	–	2.88
[20], 48 h	–	–	–	–	2.9
[20], 72 h	–	–	–	–	4.11

drug-induced phospholipidosis [%], [19]
Settings	0.3 µM	0.833333 µM	3.33333 µM	6.66667 µM	10 µM	30 µM
24 h	6.35	10.2	76.1	105	129	33.4
48 h	4.72	6.5	79.5	112	127	–
72 h	0.841	8.09	57.5	114	131	–
